Experimental data reported in PubChem BioAssay (NCI).
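Compound exposure: 48 hours, 5 concentrations, 96-well plates. Definition used: TGI = concentration required for complete inhibition of growth.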

Experiments:
Assay in all cases: DTP human tumour cell line panel, 48 h
786-0 renal = system: 786-0 renal
A549 NSCLC = system: A549 NSCLC
ACHN renal = system: ACHN renal
BT-549 breast = system: BT-549 breast
CAKI-1 renal = system: CAKI-1 renal
CCRF-CEM leukemia = system: CCRF-CEM leukemia
COLO 205 colon = system: COLO 205 colon
DU-145 prostate = system: DU-145 prostate
EKVX NSCLC = system: EKVX NSCLC
HCC-2998 colon = system: HCC-2998 colon
HCT-116 colon = system: HCT-116 colon
HCT-15 colon = system: HCT-15 colon
HL-60(TB) leukemia = system: HL-60(TB) leukemia
HOP-62 NSCLC = system: HOP-62 NSCLC
HOP-92 NSCLC = system: HOP-92 NSCLC
HS 578T breast = system: HS 578T breast
HT29 colon = system: HT29 colon
IGROV1 ovarian = system: IGROV1 ovarian
K-562 leukemia = system: K-562 leukemia
KM12 colon = system: KM12 colon
LOX IMVI melanoma = system: LOX IMVI melanoma
M14 melanoma = system: M14 melanoma
MALME-3M melanoma = system: MALME-3M melanoma
MCF7 breast = system: MCF7 breast
MDA-MB-231 breast = system: MDA-MB-231 breast
MDA-MB-435 = system: MDA-MB-435
MDA-N = system: MDA-N
MOLT-4 leukemia = system: MOLT-4 leukemia
NCI-H226 lung = system: NCI-H226 lung
NCI-H23 lung = system: NCI-H23 lung
NCI-H460 lung = system: NCI-H460 lung
NCI-H522 lung = system: NCI-H522 lung
NCI/ADR-RES ovarian = system: NCI/ADR-RES ovarian
OVCAR-3 ovarian = system: OVCAR-3 ovarian
OVCAR-4 ovarian = system: OVCAR-4 ovarian
OVCAR-5 ovarian = system: OVCAR-5 ovarian
OVCAR-8 ovarian = system: OVCAR-8 ovarian
PC-3 prostate = system: PC-3 prostate
RPMI-8226 leukemia = system: RPMI-8226 leukemia
RXF 393 renal = system: RXF 393 renal
SF-268 CNS = system: SF-268 CNS
SF-295 CNS = system: SF-295 CNS
SF-539 CNS = system: SF-539 CNS
SK-MEL-2 melanoma = system: SK-MEL-2 melanoma
SK-MEL-28 melanoma = system: SK-MEL-28 melanoma
SK-MEL-5 melanoma = system: SK-MEL-5 melanoma
SK-OV-3 ovarian = system: SK-OV-3 ovarian
SN12C renal = system: SN12C renal
SNB-19 CNS = system: SNB-19 CNS
SNB-75 CNS = system: SNB-75 CNS
SW-620 colon = system: SW-620 colon
T-47D breast = system: T-47D breast
TK-10 renal = system: TK-10 renal
U251 CNS = system: U251 CNS
UACC-257 melanoma = system: UACC-257 melanoma
UACC-62 melanoma = system: UACC-62 melanoma
UO-31 renal = system: UO-31 renal
A498 renal = system: A498 renal
SR leukemia = system: SR leukemia

COC(=O)C1=C(C)NC(C)=C(C(=O)OC)C1c1ccc(N=O)cc1
TGI (786-0 renal): 27.7 µM
TGI (A549 NSCLC): > 60.3 µM
TGI (ACHN renal): 26.7 µM
TGI (BT-549 breast): 23 µM
TGI (CAKI-1 renal): 27.9 µM
TGI (CCRF-CEM leukemia): > 100 µM
TGI (COLO 205 colon): 24.5 µM
TGI (DU-145 prostate): 19.2 µM
TGI (EKVX NSCLC): 34.1 µM
TGI (HCC-2998 colon): 33.7 µM
TGI (HCT-116 colon): 36.8 µM
TGI (HCT-15 colon): 23.9 µM
TGI (HL-60(TB) leukemia): > 100 µM
TGI (HOP-62 NSCLC): > 55.3 µM
TGI (HOP-92 NSCLC): 8.95 µM
TGI (HS 578T breast): 40.8 µM
TGI (HT29 colon): 40.8 µM
TGI (IGROV1 ovarian): 30.1 µM
TGI (K-562 leukemia): > 100 µM
TGI (KM12 colon): 33.4 µM
TGI (LOX IMVI melanoma): 11.6 µM
TGI (M14 melanoma): 23.3 µM
TGI (MALME-3M melanoma): 24.4 µM
TGI (MCF7 breast): 37 µM
TGI (MDA-MB-231 breast): 25.2 µM
TGI (MDA-MB-435): 32.6 µM
TGI (MDA-N): 16.6 µM
TGI (MOLT-4 leukemia): > 100 µM
TGI (NCI-H226 lung): 39.3 µM
TGI (NCI-H23 lung): 38.9 µM
TGI (NCI-H460 lung): 41.9 µM
TGI (NCI-H522 lung): 6.61 µM
TGI (NCI/ADR-RES ovarian): 50.9 µM
TGI (OVCAR-3 ovarian): 26.9 µM
TGI (OVCAR-4 ovarian): 14.2 µM
TGI (OVCAR-5 ovarian): 32.9 µM
TGI (OVCAR-8 ovarian): 21.7 µM
TGI (PC-3 prostate): 29.3 µM
TGI (RPMI-8226 leukemia): 5.02 µM
TGI (RXF 393 renal): 23.5 µM
TGI (SF-268 CNS): 43.9 µM
TGI (SF-295 CNS): > 61.3 µM
TGI (SF-539 CNS): 32 µM
TGI (SK-MEL-2 melanoma): 28.2 µM
TGI (SK-MEL-28 melanoma): 33.4 µM
TGI (SK-MEL-5 melanoma): 30.9 µM
TGI (SK-OV-3 ovarian): 25.5 µM
TGI (SN12C renal): 35.8 µM
TGI (SNB-19 CNS): > 81.2 µM
TGI (SNB-75 CNS): 26.1 µM
TGI (SW-620 colon): 12.9 µM
TGI (T-47D breast): 44.7 µM
TGI (TK-10 renal): 29.2 µM
TGI (U251 CNS): 32.2 µM
TGI (UACC-257 melanoma): 23.2 µM
TGI (UACC-62 melanoma): 30 µM
TGI (UO-31 renal): 26.3 µM

CCS(=O)(=O)CCn1c(=O)c2c(ncn2C)n(C)c1=O
TGI (786-0 renal): > 100 µM
TGI (A498 renal): > 100 µM
TGI (A549 NSCLC): > 100 µM
TGI (ACHN renal): > 100 µM
TGI (BT-549 breast): > 100 µM
TGI (CAKI-1 renal): > 100 µM
TGI (CCRF-CEM leukemia): > 100 µM
TGI (COLO 205 colon): > 100 µM
TGI (DU-145 prostate): > 100 µM
TGI (EKVX NSCLC): > 100 µM
TGI (HCC-2998 colon): > 100 µM
TGI (HCT-116 colon): > 100 µM
TGI (HCT-15 colon): > 100 µM
TGI (HL-60(TB) leukemia): > 100 µM
TGI (HOP-62 NSCLC): > 100 µM
TGI (HOP-92 NSCLC): > 100 µM
TGI (HS 578T breast): > 100 µM
TGI (HT29 colon): > 100 µM
TGI (IGROV1 ovarian): > 100 µM
TGI (K-562 leukemia): > 100 µM
TGI (KM12 colon): > 100 µM
TGI (LOX IMVI melanoma): > 100 µM
TGI (M14 melanoma): > 100 µM
TGI (MALME-3M melanoma): > 100 µM
TGI (MCF7 breast): > 100 µM
TGI (MDA-MB-231 breast): > 100 µM
TGI (MDA-MB-435): > 100 µM
TGI (MDA-N): > 100 µM
TGI (MOLT-4 leukemia): > 100 µM
TGI (NCI-H23 lung): > 100 µM
TGI (NCI-H460 lung): > 100 µM
TGI (NCI-H522 lung): > 100 µM
TGI (NCI/ADR-RES ovarian): > 100 µM
TGI (OVCAR-3 ovarian): > 100 µM
TGI (OVCAR-4 ovarian): > 100 µM
TGI (OVCAR-5 ovarian): > 100 µM
TGI (OVCAR-8 ovarian): > 100 µM
TGI (PC-3 prostate): > 100 µM
TGI (RPMI-8226 leukemia): > 100 µM
TGI (RXF 393 renal): > 100 µM
TGI (SF-268 CNS): > 100 µM
TGI (SF-295 CNS): > 100 µM
TGI (SF-539 CNS): > 100 µM
TGI (SK-MEL-2 melanoma): > 100 µM
TGI (SK-MEL-28 melanoma): > 100 µM
TGI (SK-MEL-5 melanoma): > 100 µM
TGI (SN12C renal): > 100 µM
TGI (SNB-19 CNS): > 100 µM
TGI (SNB-75 CNS): > 100 µM
TGI (SR leukemia): > 100 µM
TGI (SW-620 colon): > 100 µM
TGI (T-47D breast): > 100 µM
TGI (TK-10 renal): > 100 µM
TGI (U251 CNS): > 100 µM
TGI (UACC-257 melanoma): > 100 µM
TGI (UACC-62 melanoma): > 100 µM
TGI (UO-31 renal): > 100 µM
